In the supplement of paper PMC10307832:

Legend:
Experiment in all cases: relative viability (nuclei count vs DMSO), 5 days (fraction); higher = more cells survive
[1] = compound: O=C(c1cc(Cc2n[nH]c(=O)c3ccccc23)ccc1F)N1CCN(C(=O)C2CC2)CC1 [Olaparib] + CC(C)C[C@H](NC(=O)[C@H](Cc1ccccc1)NC(=O)c1cnccn1)B(O)O [Bortezomib] (partner 0.002 µM)
In short: (§1)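 Relative viability divides the nuclei count in treated wells by that in vehicle wells. Lung cancer cell lines were seeded in 1536-well plates, dosed by pin tool the next day, and fixed and stained after 5 days in one step with final 0.05% Triton X-100, 1% formaldehyde and 1 ug/ml Hoechst. Dosing was a single drug or a fixed anchor-drug dose plus five library-drug doses (not always all listed) in √10 steps, and values are medians of duplicate plates imaged at 4×.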

[2] = compound: O=C(c1cc(Cc2n[nH]c(=O)c3ccccc23)ccc1F)N1CCN(C(=O)C2CC2)CC1 [Olaparib] + Nc1ncn([C@H]2C[C@H](O)[C@@H](CO)O2)c(=O)n1 [Decitabine] (partner 2 µM)
In short: as §1

[3] = compound: CC(C)C[C@H](NC(=O)[C@H](CCc1ccccc1)NC(=O)CN1CCOCC1)C(=O)N[C@@H](Cc1ccccc1)C(=O)N[C@@H](CC(C)C)C(=O)[C@@]1(C)CO1 [Carfilzomib] + CC1(C)CCC(c2ccc(Cl)cc2)=C(CN2CCN(c3ccc(C(=O)NS(=O)(=O)c4ccc(N[C@H](CCN5CCOCC5)CSc5ccccc5)c(S(=O)(=O)C(F)(F)F)c4)cc3)CC2)C1 [Navitoclax] (partner 0.5 µM)
In short: as §1

[4] = compound: CC(C)C[C@H](NC(=O)[C@H](CCc1ccccc1)NC(=O)CN1CCOCC1)C(=O)N[C@@H](Cc1ccccc1)C(=O)N[C@@H](CC(C)C)C(=O)[C@@]1(C)CO1 [Carfilzomib] + N=C(N)NC(=N)NCCc1ccccc1 [Phenformin] (partner 250 µM)
In short: as §1

Row | Cell Line | relative viability ([1]; first compound 0.08 µM) | relative viability ([1]; first compound 0.253 µM) | relative viability ([1]; first compound 2.53 µM) | relative viability ([1]; first compound 8 µM) | relative viability ([2]; first compound 0.08 µM) | relative viability ([2]; first compound 0.253 µM) | relative viability ([2]; first compound 2.53 µM) | relative viability ([2]; first compound 8 µM) | relative viability ([3]; first compound 0.001 µM) | relative viability ([3]; first compound 0.003162 µM) | relative viability ([3]; first compound 0.01 µM) | relative viability ([3]; first compound 0.03162 µM) | relative viability ([3]; first compound 0.1 µM) | relative viability ([4]; first compound 0.001 µM) | relative viability ([4]; first compound 0.003162 µM) | relative viability ([4]; first compound 0.01 µM) | relative viability ([4]; first compound 0.03162 µM) | relative viability ([4]; first compound 0.1 µM)
1 | HCC-827 | 1.01 | 0.943 | 1.03 | 0.95 | 0.306 | 0.266 | 0.291 | 0.231 | 0.983 | 1.05 | 1.03 | 0.907 | 0.369 | 0.37 | 0.44 | 0.428 | 0.394 | 0.279
2 | HOP-62 | 1.21 | 0.55 | 0.556 | 0.211 | 0.18 | 0.17 | 0.234 | 0.178 | 1.1 | 1.11 | 0.887 | 0.167 | 0.107 | 0.749 | 0.694 | 0.415 | 0.232 | 0.0898
3 | LC-2-ad | 1.15 | 0.922 | 0.908 | 0.556 | 0.618 | 0.623 | 0.557 | 0.509 | 0.568 | 0.452 | 0.407 | 0.227 | 0.135 | 0.567 | 0.668 | 0.612 | 0.453 | 0.181
4 | LCLC-97TM1 | 0.729 | 0.475 | 1.03 | 0.276 | 0.193 | 0.143 | 0.165 | 0.178 | 0.285 | 0.47 | 0.478 | 0.171 | 0.128 | 0.423 | 0.401 | 0.497 | 0.302 | 0.147
5 | LOU-NH91 | 0.502 | 0.462 | 0.512 | 0.394 | 0.853 | 0.774 | 0.783 | 0.769 | 0.703 | 0.832 | 0.42 | 0.19 | 0.204 | 0.724 | 0.806 | 0.543 | 0.215 | 0.221
6 | LU99A | 1.13 | 0.96 | 0.726 | 0.626 | 0.933 | 0.753 | 0.601 | 0.566 | 0.738 | 0.898 | 0.793 | 0.581 | 0.183 | 0.921 | 0.806 | 0.721 | 0.757 | 0.263
7 | LXF-289 | 1.09 | 0.941 | 1.03 | 0.992 | 0.336 | 0.302 | 0.272 | 0.232 | 0.915 | 0.974 | 0.935 | 0.0853 | 0.0461 | 0.524 | 0.519 | 0.393 | 0.226 | 0.0577
8 | NCI-H23 | 1.28 | 0.717 | 0.581 | 0.482 | 0.336 | 0.313 | 0.259 | 0.277 | 0.797 | 0.799 | 0.987 | 0.227 | 0.152 | 0.772 | 0.684 | 0.762 | 0.36 | 0.134
9 | NCI-H322M | 1.27 | 1.19 | 1.2 | 1.24 | 0.685 | 0.592 | 0.708 | 0.596 | 1.36 | 1.29 | 1.01 | 1.22 | 0.559 | 0.77 | 0.84 | 0.827 | 0.494 | 0.306
10 | NCI-H441 | – | 0.175 | 0.489 | 0.382 | 0.257 | 0.197 | 0.243 | 0.188 | 0.534 | 0.571 | 0.208 | 0.144 | 0.145 | 0.785 | 0.898 | 0.242 | 0.161 | 0.177
11 | NCI-H460 | 1.14 | 1.02 | 0.891 | 0.277 | 0.114 | 0.128 | 0.0907 | 0.062 | 1.08 | 1.21 | 1.17 | 0.357 | 0.0107 | 0.553 | 0.582 | 0.571 | 0.0312 | 0.0172
12 | NCI-H520 | 0.788 | 0.336 | 0.671 | 0.209 | 0.467 | 0.318 | 0.365 | 0.261 | 1.04 | 1.37 | 0.797 | 0.183 | 0.168 | 0.609 | 0.46 | 0.227 | 0.287 | 0.227
13 | NCI-H596 | 1.3 | 0.878 | 0.865 | 0.794 | 0.915 | 0.9 | 0.732 | 0.632 | 0.906 | 1.04 | 1.14 | 0.353 | 0.153 | 0.807 | 0.812 | 0.781 | 0.433 | 0.25
14 | NCI-H647 | 1.18 | 0.942 | 0.864 | 0.416 | 0.293 | 0.253 | 0.227 | 0.152 | – | 1.33 | 0.841 | 0.087 | 0.0294 | 0.485 | 0.667 | 0.237 | 0.0272 | 0.0185
15 | NCI-H727 | 0.844 | 0.829 | 0.709 | 0.514 | 0.908 | 0.858 | 0.893 | 0.805 | 0.429 | 0.637 | 0.601 | 0.165 | 0.137 | 0.559 | 0.626 | 0.573 | 0.256 | 0.182
16 | NCI-H838 | 0.956 | 0.738 | 0.771 | 0.9 | 0.416 | 0.32 | 0.354 | 0.323 | 1.24 | 1.26 | 1.16 | 0.686 | 0.153 | 0.66 | 0.865 | 0.537 | 0.122 | 0.13
17 | NCI-H1355 | 1.19 | 1.14 | 1.15 | 1.12 | 0.37 | 0.345 | 0.304 | 0.31 | 0.792 | 1.02 | 0.979 | 0.486 | 0.133 | 0.427 | 0.51 | 0.469 | 0.302 | 0.167
